{
  "source": "patent US20210030870A1",
  "about": "“MODULATION OF P62 AND STING ACTIVITY” (priority 2018, published 2021)",
  "key": {"DNA-cGAS STING pathway [1]": {"tested_on": "DNA-cGAS STING pathway", "test": "Type I IFN bioassay, THP1 cells stimulated with DNA or polyIC with/without PEP302", "type": "cell-based, human", "method": "Bioactive human type I IFN was measured on cell supernatants by use of HEK-Blue™ IFN-a/b cells as reporter cells according to the manufacturer instructions (InvivoGen)."}, "DNA-cGAS STING pathway [2]": {"tested_on": "DNA-cGAS STING pathway", "test": "CXCL10 ELISA, THP1 cells with PEP302", "type": "cell-based, human", "settings": "DNA stimulation", "method": "Protein levels of the cytokines CXCL10 and TNF-α in supernatants, were measured using ELISA kits from R and D Systems (CXCL10; DY266) and (TNF-α; DY210) following the manufacturer's instructions."}, "STING": {"tested_on": "STING", "test": "Western blotting of THP1 cells treated with PEP302", "type": "cell-based, human", "method": "Whole-cell extracts or immunoprecipitation samples were analyzed by immunoblotting. Samples were diluted in XT sample buffer and XT reducing agent and ran on a SDS—PAGE (Criterion™ TGX™). Trans-Blot Turbo™ Transfer System was used for the transfer of proteins to PVDF membranes (all reagents Bio-Rad). The membrane was blocked in 5% Difco™ skim milk (BD) or 5% bovine serum albumin (BSA) (Sigma). For detection of STING dimerization, samples were prepared for electrophoresis using non-reducing RIPA lysis buffer with 0.2% SDS and complete mini inhibitor (Sigma). The antibodies used for immunoblotting were as follows: rabbit anti-pSTING (S366) (Cell Signaling Technology, #85735), rabbit anti-pTBK1 (Ser172) (Cell Signaling, D52C2/#5483), rabbit anti-phospho p62 (Cell Signalling), Guinea pig anti-p62 (Progen), rabbit anti-STING (Cell Signalling) and mouse anti-b-actin (Abcam, AC-15/ab49900)."}, "STING-pathway [3]": {"tested_on": "STING-pathway", "test": "TNF-α ELISA on supernatants of peptide-pretreated PBMCs stimulated with STING agonists", "type": "cell-based", "settings": "human primary PBMCs, peptide pre-activation (25 μg/ml, 1 hour), co-stimulation with cGAMP or HT-DNA, supernatants after 20 hours"}, "STING-pathway [4]": {"tested_on": "STING-pathway", "test": "Functional type I IFN assay (HEK-Blue IFN-α/β reporter) on supernatants of peptide-pretreated PBMCs", "type": "cell-based, human", "settings": "for type I IFN: PBMCs, peptide pre-activation (25 μg/ml), co-stimulation with HT-DNA"}, "STING-pathway [5]": {"tested_on": "STING-pathway", "test": "CXCL10 ELISA on supernatants of peptide-pretreated PMA-differentiated THP1 cells", "type": "cell-based", "settings": "human PMA-differentiated THP1 cells, peptide 10 μg/ml, HT-DNA treatment; listed as SEQ ID NO: 9"}, "STING-pathway [6]": {"tested_on": "STING-pathway", "test": "Functional type I IFN assay on supernatants of peptide-pretreated THP1 cells", "type": "cell-based, human", "settings": "peptide pre-activation (10 μg/ml), co-stimulation with HT-DNA"}, "[7]": {"settings": "THP1 cells treated with peptide"}, "[8]": {"settings": "THP1 cells, after DNA and cGAMP stimulation, Western blotting"}},
  "note": "Entries after “also recorded” stand apart in the source; their conditions may differ.",
  "data": [
    {"sequence": "PGPCERLLSRVAALFPALRP GRKKRRQRRRPQ (PGPCERLLSRVAALFPALRPGRKKRRQRRRPQ; listed as Homo sapiens) [PEP302, PB1 domain fragment peptide of human P62]", "values": [
      {"measurement": "pathway specificity of type I IFN inhibition (DNA versus polyIC stimulation)", "setting": "DNA-cGAS STING pathway [1]; THP1 cells stimulated with DNA or polyIC with/without peptide", "result": "may specifically target the DNA-cGAS STING pathway and not the polylC pathway"},
      {"measurement": "DNA-activated IFN (type I IFN bioassay)", "setting": "DNA-cGAS STING pathway [1]; THP1 cells, DNA stimulation", "result": "reduces"},
      {"measurement": "DNA-STING-induced CXCL10 production", "setting": "DNA-cGAS STING pathway [2]", "result": "reduces; also recorded: can inhibit"},
      {"measurement": "STING dimerization", "setting": "STING; [7]", "result": "may induce"},
      {"measurement": "autophagy (LC3 turnover)", "setting": "STING; [7]", "result": "may induce; also recorded: seems to constitutively induce"},
      {"measurement": "p62 dimerization", "setting": "STING; [7]", "result": "may induce; also recorded: induce p62 dimerization"},
      {"measurement": "ubiquitination of STING", "setting": "STING; THP1 cells treated with peptide alone", "result": "may also induce; also recorded: potentially ubiquitination of STING"},
      {"measurement": "phosphorylation of TBK1", "setting": "STING; [8]", "result": "significantly reduced; also recorded: inhibit/reduce"},
      {"measurement": "phosphorylation of p62", "setting": "STING; [8]", "result": "significantly reduced; also recorded: inhibit/reduce"},
      {"measurement": "phosphorylation of STING", "setting": "STING; THP1 cells, after DNA stimulation, Western blotting", "result": "can inhibit; also recorded: may inhibit"},
      {"measurement": "phosphorylation of STING (phospho-STING)", "setting": "STING; THP1 cells, after cGAMP stimulation, Western blotting", "result": "significantly reduce; also recorded: may inhibit"}
    ]},
    {"sequence": "EELTMAMSYVKDDIFRIYIKGRKKRRQRRRPQ (listed as Homo sapiens) [PEP305, PB1 domain fragment peptide of human P62 C-terminally conjugated to TAT]", "values": [
      {"measurement": "cytokine response of TNF-alpha", "setting": "STING-pathway [3]", "result": "enhance"},
      {"measurement": "cytokine response of TNF-alpha", "setting": "STING-pathway [3]; listed as SEQ ID NO: 9", "result": "very efficient in increasing"},
      {"measurement": "type I Interferon", "setting": "STING-pathway [4]; human primary PBMCs, peptide pre-activation (25 μg/ml, 1 hour), co-stimulation with cGAMP or HT-DNA", "result": "suppress"},
      {"measurement": "CXCL10 expression", "setting": "STING-pathway [5]", "result": "very efficient in increasing; also recorded: increase"}
    ]},
    {"sequence": "SLTVKAYLLGKEDAAREIRRGRKKRRQRRRPQ (listed as Homo sapiens) [PEP300, N-terminal fragment peptide of human P62 C-terminally conjugated to TAT]", "values": [
      {"measurement": "type I IFN", "setting": "STING-pathway [4]", "result": "significant suppression"},
      {"measurement": "type I IFN", "setting": "STING-pathway [4]; listed as SEQ ID NO: 8", "result": "capable of reducing"},
      {"measurement": "type I IFN", "setting": "STING-pathway [6]", "result": "significant suppression"},
      {"measurement": "type I IFN", "setting": "STING-pathway [6]; listed as SEQ ID NO: 8", "result": "capable of reducing"}
    ]},
    {"sequence": "DLCSVCEGKGLHRGHTKLAFGRKKRRQRRRPQ (listed as Homo sapiens) [PEP307, ZZ domain fragment peptide of human P62 C-terminally conjugated to TAT]", "values": [
      {"measurement": "type I IFN", "setting": "STING-pathway [4]", "result": "significant suppression"},
      {"measurement": "type I IFN", "setting": "STING-pathway [4]; listed as SEQ ID NO: 10", "result": "capable of reducing"},
      {"measurement": "type I IFN", "setting": "STING-pathway [6]", "result": "significant suppression"},
      {"measurement": "type I IFN", "setting": "STING-pathway [6]; listed as SEQ ID NO: 10", "result": "capable of reducing"}
    ]}
  ]
}
